These results are taken from US20220168276A1, “Mehods and Compositions for Treating SARS-CoV-2 Infection using Carboxyamidotriazole Orotate” (priority 2020, published 2022).

The conditions of data set [1]: in vivo; cited from earlier work.
For data set [2] the following is noted: cited from earlier work.
Data set [3] relates to imatinib mesylate-resistant chronic myeloid leukemia cells. The following applies: by down-regulating bcr-abl; cited from earlier work.
Data set [4] concerns human T-cells. The conditions noted are these: cited from earlier work.
Data set [5] has as its system non-infected Vero E6 cells. Format: cell-based. The conditions noted are these: cell viability, read-out: EC 50 in non-infected Vero E6 cells.
Data set [6] has as its system SARS-CoV-2. The conditions noted are these: Vero E6 cells.
The test system of data set [7] is Cytokines in plasma. The data set is described as follows: Phase I trial of CTO in cancer patients: plasma cytokine levels by Milliplex/Luminex panel. Format: in vivo, human. On the set-up: key to GM-CSF plasma level / IFNα2 plasma level / IFNγ plasma level / IL-10 plasma level / IL-12p40 plasma level / IL-12p70 plasma level / IL-13 plasma level / IL-15 plasma level / IL-17A plasma level / IL-1RA plasma level / IL-2 plasma level / IL-4 plasma level / IL-6 plasma level / IL-8 plasma level / IP-10 plasma level / MIP1a plasma level / RANTES plasma level / IL-1β plasma level / TNFα plasma level / VEGF plasma level / EGF plasma level: + increased; − decreased. The procedure: Such an approach described above is based on unexpected findings when CTO was given to cancer patients who volunteered to participate in Phase I clinical studies of CTO to establish its safety and tolerability.
In a Phase I trial of CTO testing the safety and tolerability of CTO in cancer patients, Plasa samples were obtained from three patients after administration of different doses of CTO daily as follows: 1) NSCLC Patient 002-46 (CTO 555 mg/m2), 2) NSCLC Patient 002-50 (CTO 427 mg/m2) and 3) Ovarian Cancer Patient 002-53(CTO 427 mg/m2) The levels of cytokines were measured by using the HCYTMAG-60K-PX30/Milliplex MAP Human Cytokine/Chemokine Magnetic Bead Panel from Milliplex, USA.

In data set [8] the test system is SARS-CoV-2. Format: in vivo. The conditions noted are these: one patient, 600 mg daily oral, second day.
The subject of data set [9] is Akt and Erk1/2 phosphorylation. The conditions noted are these: exosomes stimulated HUVEC cell; cited from earlier work.
Where [10] appears, read: cancer patients, CTO 427-555 mg/m2 daily, vs baseline.

Structures are written as SMILES. pEC50, pIC50: −log10 of the molar value. “Also recorded” adds a separate entry of the source. A value given as a limit tells only on which side of the number the result lay.

As to `NC(=O)c1nnn(Cc2cc(Cl)c(C(=O)c3ccc(Cl)cc3)c(Cl)c2)c1N` [CAI, carboxyamidotriazole], in data set [1], the “TNF-α and IL-1β at the site of inflammation and in serum” value is on record as “decreased”; the “vascular permeability stimulated by VEGF or histamine” value was “inhibited”. Besides, in data set [2] (animals), the “colitis scored macroscopically and microscopically” value is “inhibited”. For the same molecule, in data set [2] (in vivo), the NF-kB activation result is “prevented” and the “production of fibrinogenic cytokine transforming growth factor β” value is given as “inhibited”. Moreover, in data set [2] (serum, supernatant of peritoneal macrophages and lamina propria), the “production of TNF-α, IL-1β and IL-6” value is on record as “inhibited”. The apoptosis entry in data set [3] is on record as “induces apoptosis”. In addition, the “calcium influx and HIV LTR transcription dependent on it” value in data set [4] is “modulated”.
As usually defined, the pIC50 is the negative decadic logarithm of the IC50, by convention in mol/L. Regarding `NC(=O)c1nnn(Cc2cc(Cl)c(C(=O)c3ccc(Cl)cc3)c(Cl)c2)c1N.O=C(O)c1cc(=O)[nH]c(=O)[nH]1` [CTO, 5-amino-1-(4-(4-chlorobenzyl)-1,2,3-triazole-4-carboxamide orotate], the pEC50 in data set [5] was 4.83. Further, the pIC50 in data set [6] (read-out: IC50, cytopathic effect (CPE) for SARS-CoV-2, 72 hours post-inoculation, 20 μM highest dose tested) was below 4.70.
As for `NC(=O)c1nnn(Cc2cc(Cl)c(C(=O)c3ccc(Cl)cc3)c(Cl)c2)c1N.O=C(O)c1cc(=O)[nH]c(=O)[nH]1` [CTO], in data set [7] (setting [10]), the EGF plasma level result is “EGF- (+)”, the GM-CSF plasma level entry is “GM-CSF- (−)”, the IFNα2 plasma level entry is on record as “IFNα2- (+)” and the IFNγ plasma level result is on record as “IFNγ- (−)”. In data set [7] (setting [10]), the IL-1RA plasma level entry is “IL-1RA- (−)”, the IL-1β plasma level result is on record as “**IL-1β- (−)”, the IL-2 plasma level result is “IL-2- (−)” and the IL-4 plasma level result is “IL-4- (−)”. In data set [7] (setting [10]), the IL-6 plasma level result is “IL-6- (−)”, the IL-8 plasma level result is listed as “IL-8-(−)”, the IL-10 plasma level entry is listed as “IL-10- (+)” and the IL-12p40 plasma level result is recorded as “IL-12p40- (+)”. In data set [7] (setting [10]), the IL-12p70 plasma level result is “IL-12p70- (−)”, the IL-13 plasma level result is “IL-13-(−)”, the IL-15 plasma level entry was “IL-15- (−)” and the IL-17A plasma level entry is “IL-17A- (−)”. Further, in data set [7] (setting [10]), the IP-10 plasma level entry was “IP-10- (−)”, the MIP1a plasma level entry is listed as “MIP1a- (−)”, the RANTES plasma level result is “RANTES- (+)” and the TNFα plasma level entry is given as “**TNFα- (−)”. The VEGF plasma level result in [7] (setting [10]) is reported as “VEGF- (−)”. In data set [7] (plasma, CTO 427 mg/m2 to 555 mg/m2), the “levels of cytokines including EGF, IFN α2, IL-10, IL-12p40” value is “increase”. Further, the “levels of several cytokines including VEGF, GM-CSF, INF-γ, IL-2, IL-12p70, IL-13, IL-15, IL-17a, IL-1RA, IL-1α, IL-2, IL1-4, IL-6, IL-8, il-10, MIP1-α, IL-1β, TNF-α” value in data set [7] (plasma, CTO 427 mg/m2 to 555 mg/m2, forty-eight hours interval after CTO, vs baseline) was “reduced; also recorded: reduction”. The COVID-19 symptoms result in data set [8] was “great improvement in most of the symptoms”. For the same molecule, the body weight result in data set [8] (lost twelve pounds before treatment) is recorded as “remained at constant weight”. The “concentration up to which CTO inhibited replication of SARS-CoV-2” value in data set [6] is on record as “up to 5 μM”. Besides, the cell viability entry in data set [6] (CTO up to 5 μM) was “above 90%”. The “Maximum % Inhibition of CPE” value in [6] (recorded <20 μM concentration) amounted to 29.03%. Further, the “Akt and Erk1/2 phosphorylation” value in data set [9] is given as “inhibits”.
